Test results: PMC3961306, “Comparison of the Cancer Gene Targeting and Biochemical Selectivities of All Targeted Kinase Inhibitors Approved for Clinical Use” (PLoS ONE, 2014)

Assays:
Assay in all cases: Kinase profiling in a biochemical assay panel (mobility shift assays and ELISA), %-inhibition at 1 μM; selectivity entropy
[1] = target: T1, panel of more than 300 wild-type and mutant kinases (313 kinase panel) (Homo sapiens, UniProt O60285)
T1 sequence (O60285 1-661): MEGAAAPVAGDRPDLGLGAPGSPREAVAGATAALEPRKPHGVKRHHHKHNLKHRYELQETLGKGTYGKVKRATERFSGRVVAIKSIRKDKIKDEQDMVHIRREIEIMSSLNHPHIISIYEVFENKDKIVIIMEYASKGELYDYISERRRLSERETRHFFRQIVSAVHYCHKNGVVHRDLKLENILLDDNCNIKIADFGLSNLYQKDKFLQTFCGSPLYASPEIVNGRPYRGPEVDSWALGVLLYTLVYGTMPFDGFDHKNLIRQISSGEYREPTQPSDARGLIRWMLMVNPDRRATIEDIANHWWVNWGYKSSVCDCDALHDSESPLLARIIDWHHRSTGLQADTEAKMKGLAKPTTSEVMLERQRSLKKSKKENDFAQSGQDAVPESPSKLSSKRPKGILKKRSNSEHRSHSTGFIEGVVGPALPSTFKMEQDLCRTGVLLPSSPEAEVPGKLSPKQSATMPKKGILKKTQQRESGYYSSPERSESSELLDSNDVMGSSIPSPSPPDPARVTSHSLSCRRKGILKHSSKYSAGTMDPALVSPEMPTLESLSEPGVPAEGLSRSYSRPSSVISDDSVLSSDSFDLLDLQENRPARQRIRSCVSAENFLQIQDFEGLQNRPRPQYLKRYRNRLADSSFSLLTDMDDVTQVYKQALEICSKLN

[2] = target: panel of more than 300 wild-type and mutant kinases (313 kinase panel) (Homo sapiens, UniProt P19525); conditions: kinase PKR; 1 μM
[3] = target: panel of more than 300 wild-type and mutant kinases (313 kinase panel) (Homo sapiens, UniProt P22455, V550E); conditions: kinase FGFR4(V550E); compound at 1 μM
panel of more than 300 wild-type and mutant kinases (313 kinase panel) (Homo sapiens, UniProt P22455, V550E), sequence (P22455 22-802 V550E): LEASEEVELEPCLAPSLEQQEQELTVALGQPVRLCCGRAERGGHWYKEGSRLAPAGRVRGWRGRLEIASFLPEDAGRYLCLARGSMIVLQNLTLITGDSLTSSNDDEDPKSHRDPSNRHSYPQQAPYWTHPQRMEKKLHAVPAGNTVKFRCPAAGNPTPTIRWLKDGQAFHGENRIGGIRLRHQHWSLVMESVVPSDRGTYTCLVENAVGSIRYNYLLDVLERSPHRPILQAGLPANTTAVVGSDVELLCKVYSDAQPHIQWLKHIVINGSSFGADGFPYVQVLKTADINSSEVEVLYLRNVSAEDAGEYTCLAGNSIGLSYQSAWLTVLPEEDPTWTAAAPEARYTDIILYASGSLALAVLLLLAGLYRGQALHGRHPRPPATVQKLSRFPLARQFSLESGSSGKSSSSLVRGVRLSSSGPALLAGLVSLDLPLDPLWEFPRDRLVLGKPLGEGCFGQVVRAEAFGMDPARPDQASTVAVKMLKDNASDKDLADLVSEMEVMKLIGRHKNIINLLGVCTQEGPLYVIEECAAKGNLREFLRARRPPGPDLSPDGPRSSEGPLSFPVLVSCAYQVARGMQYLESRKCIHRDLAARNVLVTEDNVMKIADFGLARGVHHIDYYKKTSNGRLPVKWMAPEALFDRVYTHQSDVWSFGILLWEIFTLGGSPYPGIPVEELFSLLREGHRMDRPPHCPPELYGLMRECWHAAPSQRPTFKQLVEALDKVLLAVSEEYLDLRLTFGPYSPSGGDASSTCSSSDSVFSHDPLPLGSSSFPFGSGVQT

[4] = target: panel of more than 300 wild-type and mutant kinases (313 kinase panel) (Homo sapiens, UniProt P28482); conditions: kinase Erk2; compound at 1 μM
[5] = target: panel of more than 300 wild-type and mutant kinases (313 kinase panel) (Homo sapiens, UniProt P50750); conditions: kinase CDK9/CycT1; 1 μM compound
[6] = target: T2, panel of more than 300 wild-type and mutant kinases (313 kinase panel) (Homo sapiens, UniProt P54762)
T2 sequence (P54762 18-984): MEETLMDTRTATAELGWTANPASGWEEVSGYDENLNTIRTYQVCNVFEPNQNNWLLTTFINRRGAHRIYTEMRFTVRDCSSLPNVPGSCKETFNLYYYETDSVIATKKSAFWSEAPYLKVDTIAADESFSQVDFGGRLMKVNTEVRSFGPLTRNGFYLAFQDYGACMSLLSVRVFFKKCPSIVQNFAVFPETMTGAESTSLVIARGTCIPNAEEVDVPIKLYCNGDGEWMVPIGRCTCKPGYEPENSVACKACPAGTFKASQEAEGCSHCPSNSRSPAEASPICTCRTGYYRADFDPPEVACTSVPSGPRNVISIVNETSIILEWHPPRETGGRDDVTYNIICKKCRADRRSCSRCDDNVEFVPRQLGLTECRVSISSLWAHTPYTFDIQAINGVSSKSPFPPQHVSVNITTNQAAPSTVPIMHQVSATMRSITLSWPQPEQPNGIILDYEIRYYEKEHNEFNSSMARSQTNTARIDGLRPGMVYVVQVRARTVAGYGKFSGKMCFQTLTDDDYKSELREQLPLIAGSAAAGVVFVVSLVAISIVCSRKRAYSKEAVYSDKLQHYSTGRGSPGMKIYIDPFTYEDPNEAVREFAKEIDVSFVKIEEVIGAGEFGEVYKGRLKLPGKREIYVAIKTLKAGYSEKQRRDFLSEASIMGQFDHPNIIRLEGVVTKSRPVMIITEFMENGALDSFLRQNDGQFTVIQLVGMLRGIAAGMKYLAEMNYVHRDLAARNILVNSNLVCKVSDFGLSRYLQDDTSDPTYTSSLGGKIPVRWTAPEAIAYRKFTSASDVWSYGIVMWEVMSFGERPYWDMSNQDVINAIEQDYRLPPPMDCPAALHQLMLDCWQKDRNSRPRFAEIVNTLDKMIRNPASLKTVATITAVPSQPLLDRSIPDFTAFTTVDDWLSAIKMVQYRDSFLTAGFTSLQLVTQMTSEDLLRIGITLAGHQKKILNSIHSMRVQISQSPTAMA

[7] = target: panel of more than 300 wild-type and mutant kinases (313 kinase panel) (Homo sapiens, UniProt Q00526); conditions: kinase CDK3/CycE1; 1 μM compound
panel of more than 300 wild-type and mutant kinases (313 kinase panel) (Homo sapiens, UniProt Q00526), sequence (Q00526 whole entry, change not shown): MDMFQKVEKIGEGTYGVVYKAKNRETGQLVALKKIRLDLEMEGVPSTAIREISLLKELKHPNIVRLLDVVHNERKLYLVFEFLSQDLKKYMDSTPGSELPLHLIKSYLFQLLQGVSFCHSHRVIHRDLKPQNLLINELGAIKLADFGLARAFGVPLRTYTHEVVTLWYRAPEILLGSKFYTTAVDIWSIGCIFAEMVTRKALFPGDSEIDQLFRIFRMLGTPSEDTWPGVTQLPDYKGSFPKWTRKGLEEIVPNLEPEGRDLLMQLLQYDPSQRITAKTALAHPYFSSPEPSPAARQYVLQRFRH

[8] = target: panel of more than 300 wild-type and mutant kinases (313 kinase panel) (Homo sapiens, UniProt Q02779); conditions: kinase MLK2; 1 μM
panel of more than 300 wild-type and mutant kinases (313 kinase panel) (Homo sapiens, UniProt Q02779), sequence (Q02779 whole entry, change not shown): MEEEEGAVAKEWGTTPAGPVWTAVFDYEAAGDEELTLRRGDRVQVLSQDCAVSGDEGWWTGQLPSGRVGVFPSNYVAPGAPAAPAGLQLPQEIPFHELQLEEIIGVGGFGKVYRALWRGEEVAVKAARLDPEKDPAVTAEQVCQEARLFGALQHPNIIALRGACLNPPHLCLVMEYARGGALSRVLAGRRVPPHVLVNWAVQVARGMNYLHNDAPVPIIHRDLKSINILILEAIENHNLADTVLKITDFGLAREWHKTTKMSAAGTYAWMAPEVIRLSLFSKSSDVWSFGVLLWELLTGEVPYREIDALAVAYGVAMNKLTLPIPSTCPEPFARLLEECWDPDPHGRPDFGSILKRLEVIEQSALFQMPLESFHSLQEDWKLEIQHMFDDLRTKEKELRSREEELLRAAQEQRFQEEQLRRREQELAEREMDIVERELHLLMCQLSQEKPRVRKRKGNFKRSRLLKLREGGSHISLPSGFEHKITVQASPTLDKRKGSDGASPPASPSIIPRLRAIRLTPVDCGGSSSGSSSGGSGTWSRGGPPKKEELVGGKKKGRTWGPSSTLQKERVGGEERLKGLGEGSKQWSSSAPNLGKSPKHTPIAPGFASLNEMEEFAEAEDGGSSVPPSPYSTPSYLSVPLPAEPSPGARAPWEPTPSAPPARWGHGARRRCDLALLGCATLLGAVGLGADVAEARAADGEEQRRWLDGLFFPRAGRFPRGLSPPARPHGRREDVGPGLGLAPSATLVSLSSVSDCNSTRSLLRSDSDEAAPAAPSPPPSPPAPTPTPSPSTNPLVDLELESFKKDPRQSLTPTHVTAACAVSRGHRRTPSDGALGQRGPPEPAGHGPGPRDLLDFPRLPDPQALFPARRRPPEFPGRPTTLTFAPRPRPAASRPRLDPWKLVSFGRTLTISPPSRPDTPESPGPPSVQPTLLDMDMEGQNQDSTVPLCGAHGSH

[9] = target: panel of more than 300 wild-type and mutant kinases (313 kinase panel) (Homo sapiens, UniProt Q13882); conditions: kinase BRK; 1 μM compound
panel of more than 300 wild-type and mutant kinases (313 kinase panel) (Homo sapiens, UniProt Q13882), sequence (Q13882 whole entry, change not shown): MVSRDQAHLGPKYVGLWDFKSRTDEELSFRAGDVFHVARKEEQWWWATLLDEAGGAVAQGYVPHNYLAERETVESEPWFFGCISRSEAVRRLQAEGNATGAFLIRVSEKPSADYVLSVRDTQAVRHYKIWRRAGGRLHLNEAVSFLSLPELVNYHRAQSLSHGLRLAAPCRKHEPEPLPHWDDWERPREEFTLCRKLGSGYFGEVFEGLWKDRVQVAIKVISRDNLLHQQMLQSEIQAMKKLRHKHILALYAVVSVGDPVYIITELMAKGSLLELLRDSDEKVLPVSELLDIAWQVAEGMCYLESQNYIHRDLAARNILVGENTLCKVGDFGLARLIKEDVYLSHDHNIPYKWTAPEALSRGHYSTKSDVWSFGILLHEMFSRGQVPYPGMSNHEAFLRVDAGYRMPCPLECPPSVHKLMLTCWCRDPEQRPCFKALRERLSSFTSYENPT

[10] = target: panel of more than 300 wild-type and mutant kinases (313 kinase panel) (Homo sapiens, UniProt Q15208); conditions: kinase NDR1; 1 μM
panel of more than 300 wild-type and mutant kinases (313 kinase panel) (Homo sapiens, UniProt Q15208), sequence (Q15208 whole entry, change not shown): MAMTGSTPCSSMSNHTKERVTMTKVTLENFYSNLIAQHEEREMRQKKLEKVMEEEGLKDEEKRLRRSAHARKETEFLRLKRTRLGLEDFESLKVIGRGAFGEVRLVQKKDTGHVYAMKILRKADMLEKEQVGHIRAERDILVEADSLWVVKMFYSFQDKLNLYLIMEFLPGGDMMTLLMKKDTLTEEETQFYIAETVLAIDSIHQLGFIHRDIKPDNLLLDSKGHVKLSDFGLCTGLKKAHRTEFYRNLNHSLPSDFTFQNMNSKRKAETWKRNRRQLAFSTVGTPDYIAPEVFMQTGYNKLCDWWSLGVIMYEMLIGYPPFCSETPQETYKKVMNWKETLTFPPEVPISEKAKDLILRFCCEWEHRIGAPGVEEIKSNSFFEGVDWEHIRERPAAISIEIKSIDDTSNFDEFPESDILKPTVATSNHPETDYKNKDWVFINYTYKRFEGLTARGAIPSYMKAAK

[11] = target: panel of more than 300 wild-type and mutant kinases (313 kinase panel) (Homo sapiens, UniProt Q16620); conditions: kinase TRKB; 1 μM

SMILES | %-inhibition of NuaK1 ([1]; 1 µM) | %-inhibition of PKR [2] | %-inhibition of FGFR4(V550E) [3] | %-inhibition of Erk2 [4] | %-inhibition, CDK9/CycT1 [5] | %-inhibition of EPHB1 ([6]; kinase EPHB1, compound at 1 μM) | %-inhibition, CDK3/CycE1 [7] | %-inhibition of MLK2 [8] | %-inhibition, BRK [9] | %-inhibition of NDR1 [10] | %-inhibition of TRKB [11] | %-inhibition of NuaK1 ([1]; kinase NuaK1, 1 μM) | %-inhibition of EPHB1 ([6]; 1 µM)
C[C@@H](Oc1cc(-c2cnn(C3CCNCC3)c2)cnc1N)c1c(Cl)ccc(F)c1Cl [crizotinib] | 99% | 6% | -0.358% | -4.58% | 5% | 93% | -5.68% | 4.7% | 15% | -1.48% | 102% | – | –
CO[C@H]1C[C@@H]2CC[C@@H](C)[C@@](O)(O2)C(=O)C(=O)N2CCCC[C@H]2C(=O)O[C@H]([C@H](C)C[C@@H]2CC[C@@H](OCCO)[C@H](OC)C2)CC(=O)[C@H](C)/C=C(\C)[C@@H](O)[C@@H](OC)C(=O)[C@H](C)C[C@H](C)/C=C/C=C/C=C/1C [everolimus] | – | -8.45% | -4.41% | -7.44% | -4% | -0.233% | -4.51% | 4% | -4.32% | -7% | -0.542% | 4.27% | –
O=S(=O)(c1cccc2cnccc12)N1CCCNCC1 [fasudil] | – | -4.39% | -2.85% | -7% | 26% | -7% | 24% | -10% | -6% | 18% | -2.66% | 44% | –
CNC(=O)c1cc(Oc2ccc(NC(=O)Nc3ccc(Cl)c(C(F)(F)F)c3)c(F)c2)ccn1 [regorafenib] | – | -4.48% | -0.119% | -5% | 1% | 76% | -1.17% | 0.795% | 20% | -9% | 74% | -1.75% | –
N#CC[C@H](C1CCCC1)n1cc(-c2ncnc3[nH]ccc23)cn1 [ruxolitinib] | – | -6% | 5% | -5.62% | -3.29% | – | -9.52% | 22% | -4% | 88% | 88% | 55% | 31%
CO[C@H]1C[C@@H]2CC[C@@H](C)[C@@](O)(O2)C(=O)C(=O)N2CCCC[C@H]2C(=O)O[C@H]([C@H](C)C[C@@H]2CC[C@@H](OC(=O)C(C)(CO)CO)[C@H](OC)C2)CC(=O)[C@H](C)/C=C(\C)[C@@H](O)[C@@H](OC)C(=O)[C@H](C)C[C@H](C)/C=C/C=C/C=C/1C [temsirolimus] | – | -14% | -0.119% | -6% | -3.29% | -1.86% | -6% | 9% | -6% | -4.55% | 1.08% | 3.3% | –
CC(=O)Nc1cccc(-n2c(=O)n(C3CC3)c(=O)c3c(Nc4ccc(I)cc4F)n(C)c(=O)c(C)c32)c1 [trametinib] | – | 1.13% | -3.28% | -5% | -2.31% | -8% | 0.16% | 5% | -5.53% | -1.68% | -3.4% | -0.634% | –
CCCS(=O)(=O)Nc1ccc(F)c(C(=O)c2c[nH]c3ncc(-c4ccc(Cl)cc4)cc23)c1F [vemurafenib] | – | -0.765% | 1.79% | -4.58% | 1.33% | -1.63% | -4.34% | 5% | 98% | -3.81% | 11% | 4% | –
